Where two headings read alike, the source gives them in different places.
What was measured:
KRAS G12D = KRAS G12D (Homo sapiens (Human), UniProt P01116+P62937, G12D); test: Ras-Raf (BRAF RBD) disruption / FRET / MOA assay, KRAS G12D; assay type: biochemical; conditions: Ras-Raf disruption/FRET/MOA assay; class symbols; read-out: KRAS G12D FRET data IC50
In short: (§1)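 Compound-driven ternary complex of nucleotide-loaded Ras with cyclophilin A, disrupting BRAF RBD binding. 10-point 3-fold dilution from 30 μM final, 3 h at 25° C, then anti-His Eu-W1024 (10 nM) and anti-GST allophycocyanin (50 nM) for 1.5 h. IC50 from TR-FRET ratio decrease versus DMSO.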

KRAS G13D = KRAS G13D (Homo sapiens (Human), UniProt P01116+P62937, G13D); test: Ras-Raf (BRAF RBD) disruption / FRET / MOA assay, KRAS G13D; assay type: biochemical
Sequence of KRAS G13D (P01116-2 other isoform, or with tags, fused parts or gaps G13D): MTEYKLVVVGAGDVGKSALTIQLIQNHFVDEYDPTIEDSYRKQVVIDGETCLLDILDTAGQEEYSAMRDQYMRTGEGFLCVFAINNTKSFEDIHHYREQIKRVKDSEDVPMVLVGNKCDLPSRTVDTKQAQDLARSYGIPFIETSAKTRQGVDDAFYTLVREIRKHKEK
Sequence of KRAS G13D (P62937 whole entry): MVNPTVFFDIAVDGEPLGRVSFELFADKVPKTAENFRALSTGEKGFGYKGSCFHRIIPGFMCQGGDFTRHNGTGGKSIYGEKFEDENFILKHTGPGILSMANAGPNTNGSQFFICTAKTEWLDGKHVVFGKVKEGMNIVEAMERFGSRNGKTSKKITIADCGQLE
In short: as §1

[1] = tested on: NCI-H358 cells (K-Ras G12C); test: Potency assay: pERK in NCI-H358 cells; assay type: cell-based, human; conditions: Homo sapiens, NCI-H358; H358 KRAS G12C; read-out: pERK EC50
In short: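 Compounds are dosed as ten 3-fold dilutions from a 10 mM DMSO stock, in duplicate, and left on cells for 4 h at 37 °C, 5% CO2. Phospho-ERK1/2 is then quantified by AlphaLISA SureFire Ultra or In-Cell Western, and IC50 is derived from a 4-parameter sigmoid against log concentration.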

NRAS Q61R = NRAS Q61R (Homo sapiens (Human), UniProt P01111+P62937, Q61R); test: Ras-Raf (BRAF RBD) disruption / FRET / MOA assay, NRAS Q61R; assay type: biochemical
Sequence of NRAS Q61R (P01111 whole entry Q61R): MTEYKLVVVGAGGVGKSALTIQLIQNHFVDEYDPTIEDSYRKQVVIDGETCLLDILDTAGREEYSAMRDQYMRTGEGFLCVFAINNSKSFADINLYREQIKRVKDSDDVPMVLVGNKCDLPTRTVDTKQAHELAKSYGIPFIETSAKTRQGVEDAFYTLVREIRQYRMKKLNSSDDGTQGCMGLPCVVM
Sequence of NRAS Q61R (P62937 whole entry): as the sequence (P62937 whole entry) above
In short: (§2)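 Compounds (30 μM top final, 10-point 3-fold dilutions) incubated 3 h at 25° C with nucleotide-loaded Ras, cyclophilin A and BRAF RBD. Detection with 10 nM anti-His Eu-W1024 and 50 nM anti-GST allophycocyanin over another 1.5 h. Lowered TR-FRET ratio relative to DMSO wells gives IC50.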

KRAS Q61H = KRAS Q61H (Homo sapiens (Human), UniProt P01116+P62937, Q61H); test: Ras-Raf (BRAF RBD) disruption / FRET / MOA assay, KRAS Q61H; assay type: biochemical; conditions: class symbols
Sequence of KRAS Q61H (P01116-2 other isoform, or with tags, fused parts or gaps Q61H): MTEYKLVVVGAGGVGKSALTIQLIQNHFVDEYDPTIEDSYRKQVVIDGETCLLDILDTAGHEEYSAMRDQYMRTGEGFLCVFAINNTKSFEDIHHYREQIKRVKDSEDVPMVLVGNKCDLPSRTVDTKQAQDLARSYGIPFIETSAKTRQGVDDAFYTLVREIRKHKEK
Sequence of KRAS Q61H (P62937 whole entry): as the sequence (P62937 whole entry) above
In short: as §2

KRAS G12S = KRAS G12S (Homo sapiens (Human), UniProt P01116+P62937, G12S); test: Ras-Raf (BRAF RBD) disruption / FRET / MOA assay, KRAS G12S; assay type: biochemical; conditions: Ras-Raf disruption/FRET/MOA assay; class symbols; read-out: KRAS G12S FRET data IC50
Sequence of KRAS G12S (P01116-2 other isoform, or with tags, fused parts or gaps G12S): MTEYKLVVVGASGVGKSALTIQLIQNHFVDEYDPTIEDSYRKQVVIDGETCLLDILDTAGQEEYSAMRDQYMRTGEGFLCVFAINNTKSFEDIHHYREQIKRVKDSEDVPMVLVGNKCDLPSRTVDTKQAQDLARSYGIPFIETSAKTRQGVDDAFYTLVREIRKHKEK
Sequence of KRAS G12S (P62937 whole entry): as the sequence (P62937 whole entry) above
In short: as §1

[2] = read-out: IC50* KRAS G13D FRET data
[3] = NRAS Q61R, Ras-Raf disruption/FRET/MOA assay, read-out: IC50* NRAS Q61R FRET data
[4] = Ras-Raf disruption/FRET/MOA assay, read-out: KRAS Q61H FRET data IC50

Sequence of KRAS G12D (P01116-2 other isoform, or with tags, fused parts or gaps G12D): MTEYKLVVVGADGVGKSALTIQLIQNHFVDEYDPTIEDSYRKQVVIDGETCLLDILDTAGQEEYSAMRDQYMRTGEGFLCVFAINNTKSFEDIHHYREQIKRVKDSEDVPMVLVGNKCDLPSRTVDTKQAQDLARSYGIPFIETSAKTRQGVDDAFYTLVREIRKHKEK
Sequence of KRAS G12D (P62937 whole entry): as the sequence (P62937 whole entry) above

| Structure (SMILES) | IC50 (KRAS G12D) [µM] | IC50 (KRAS G13D; [2]) [µM] | EC50 [1] [µM] | IC50 (NRAS Q61R; [3]) [µM] | IC50 (KRAS Q61H; [4]) [µM] | IC50 (KRAS G12S) [µM] | IC50 (KRAS G13D; IC50* KRAS G13D FRET data) [µM] | IC50 (NRAS Q61R) [µM] | IC50 (KRAS Q61H; KRAS Q61H FRET data IC50, Ras-Raf disruption/FRET/MOA assay) [µM] |
| --- | --- | --- | --- | --- | --- | --- | --- | --- | --- |
| C=CC(=O)N1CC2(CCN2C(=O)N(C)[C@H](C(=O)N[C@H]2Cc3nc(cs3)-c3ccc4c(c3)c(c(-c3cccnc3[C@H](C)OC)n4CC)CC(C)(C)COC(=O)[C@@H]3CCCN(N3)C2=O)C(C)C)C1 (atropisomer, axis not shown) [Example A407] | 0.1 to 1 | 0.1 to 1 | < 5 | 0.01 to 0.1 | 0.01 to 0.1 | 0.1 to 1 |  |  |  |
| C=CC(=O)N1CC[C@H](C(=O)N(C)[C@H](C(=O)N[C@H]2CC3=NN=C(O3)c3ccc4c(c3)c(c(-c3cccnc3[C@H](C)OC)n4CC)CC(C)(C)COC(=O)[C@@H]3CCCN(N3)C2=O)C(C)C)C1 (atropisomer, axis not shown) [Example A447] | > 10 | > 10 | < 5 | > 10 | 1 to 10 | 1 to 10 |  |  |  |
| C=CC(=O)Nc1ncc(C(=O)N(C)[C@H](C(=O)N[C@H]2Cc3cccc(c3)-c3ccc4c(c3)c(c(-c3cccnc3[C@H](C)OC)n4CC)CC(C)(C)COC(=O)[C@@H]3CCCN(N3)C2=O)C(C)C)n1C (atropisomer, axis not shown) [Example A474] | > 10 | 1 to 10 | < 5 | 1 to 10 | 0.1 to 1 | 1 to 10 |  |  |  |
| C=CC(=O)N1CC[C@H](C(=O)N2CC[C@H](C)[C@H]2C(=O)N[C@H]2Cc3cccc(c3)-c3ccc4c(c3)c(c(-c3cccnc3[C@H](C)OC)n4CC)CC(C)(C)COC(=O)[C@@H]3CCCN(N3)C2=O)C1 (atropisomer, axis not shown) [Example A494] | > 10 | > 10 | < 5 | 1 to 10 | 0.1 to 1 | > 10 |  |  |  |
| C=CC(=O)N1CC[C@H](C(=O)N2CCCCC[C@H]2C(=O)N[C@H]2Cc3cccc(c3)-c3ccc4c(c3)c(c(-c3cccnc3[C@H](C)OC)n4CC)CC(C)(C)COC(=O)[C@@H]3CCCN(N3)C2=O)C1 (atropisomer, axis not shown) [Example A496] | > 10 | > 10 | < 5 | 1 to 10 | 1 to 10 | > 10 |  |  |  |
| CCn1c(-c2cccnc2[C@H](C)OC)c2c3cc(ccc31)-c1cccc(c1)C[C@H](NC(=O)[C@H](C(C)C)N1CC[C@]3(CCN(C(=O)C#CC(C)(C)N(C)C)C3)C1=O)C(=O)N1CCC[C@H](N1)C(=O)OCC(C)(C)C2 (atropisomer, axis not shown) [Example A534, (2S)-2-((S)-7-(4-(dimethylamino)-4-methylpent-2-ynoyl)-1-oxo-2,7-diazaspiro[4.4]nonan-2-yl)-N-((6^3S,4S)-1^1-ethyl-1^2-(2-((S)-1-methoxyethyl)pyridin-3-yl)-10,10-dimethyl-5,7-dioxo-6^1,6^2,6^3,6^4,6^5,6^6-hexahydro-1^1H-8-oxa-1(5,3)-indola-6(1,3)-pyridazina-2(1,3)-benzenacycloundecaphane-4-yl)-3-methylbutanamide] | 1 to 10 | 1 to 10 | < 5 | 1 to 10 | 0.1 to 1 | 1 to 10 |  |  |  |
| C=CC(=O)N1CC[C@H]2[C@@H]1CN2C(=O)N(C)[C@H](C(=O)N[C@H]1Cc2nc(cs2)-c2ccc3c(c2)c(c(-c2cccnc2[C@H](C)OC)n3CC)CC(C)(C)COC(=O)[C@@H]2CCCN(N2)C1=O)C(C)C (atropisomer, axis not shown) [Example A547] | 1 to 10 | 1 to 10 | < 5 | 1 to 10 | 0.1 to 1 | 1 to 10 |  |  |  |
| CCn1c(-c2cccnc2[C@H](C)OC)c2c3cc(ccc31)-c1cccc(c1)C[C@H](NC(=O)[C@H](C(C)C)N1CC[C@@]3(CCN(C(=O)C#C[C@@H]4COCCN4C)C3)C1=O)C(=O)N1CCC[C@H](N1)C(=O)OCC(C)(C)C2 (atropisomer, axis not shown) [Example A549] | > 10 |  | < 5 |  |  | 1 to 10 | 1 to 10 | 1 to 10 | 0.1 to 1 |
| CCn1c(-c2cccnc2[C@H](C)OC)c2c3cc(ccc31)-c1cccc(c1)C[C@H](NC(=O)[C@H](C(C)C)N1CC[C@]3(CCN(C(=O)C#C[C@@]4(N(C)C)CCOC4)C3)C1=O)C(=O)N1CCC[C@H](N1)C(=O)OCC(C)(C)C2 (atropisomer, axis not shown) [Example A560] | 1 to 10 | 1 to 10 | < 5 | 1 to 10 | 0.1 to 1 | 0.1 to 1 |  |  |  |
